Data as given in patent US4666908A, “5-Substituted pyrazolo[4,3-d]pyrimidine-7-ones and methods of use” (Warner-Lambert Company, priority 1985, dated 1987).
Like-named read-outs stand apart in the source and are kept apart here. Blank lines part the entries; values can stand above or below the compound they belong to.

Columns and labels:
Type 1 Phosphodiesterase = experiment: Phosphodiesterase (PDE) Inhibition, Type 1 Phosphodiesterase; format: biochemical, bovine (coronary arteries); conditions: Type 1 PDE, at 10^-5 M; for % Inhibition of hydrolysis of 3H-cAMP: substrate 3H-cAMP 1.0 μM; for % Inhibition of hydrolysis of 3H-cGMP: substrate 3H-cGMP 1.0 μM
Text: (§1) The method of Thompson, et al (Thompson, W. J., Terasaki, W. L., Epstein, P. M., Strada, S. J., Adv. Cyclic Nucleotide Res., 10:69-92, 1979), with minor modifications, was used to isolate phosphodiesterases from vascular smooth muscle. Bovine coronary arteries (right, anterior descending, and left circumflex arteries) from hearts obtained from a local slaughterhouse were used for these studies. Arteries from two hearts were used for each isolation. Hearts were kept on ice and the arteries were dissected within two hours after the animals were sacrificed. After removing all fat and connective tissue, the arteries were everted, cut into cubes with a single edge razor blade and homogenized with a Brinkman Polytron three times at a rheostat setting of 10.0 in four volumes of the PDE isolation buffer (10 mM Tris-HCl/pH 7.5, 2 mM MgCl2, and 1 mM dithiothreitol). The resulting homogenate was sonicated (30 sec/ml homogenate) and then centrifuged at 30,000 xg for 20 minutes. This and all subsequent procedures were performed at 4° C. The resulting supernatant was filtered through four layers of gauze, and applied to a DEAE-cellulose column (30×1.5 cm), prepared as described by Cheung (Cheung, W. Y., Biochim. Biophys. Acta, 191:303-315, 1969), and equilibrated with freshly prepared 70 mM sodium acetate/5 mM 2-mercaptoethanol (pH 6.5). The column was then washed with 2-3 bed volumes of sodium acetate/2-mercaptoethanol, after which the phosphodiesterases were eluted from the column using a continuous 70-1,000 mM sodium acetate gradient (pH 6.5, containing 5 mM 2-mercaptoethanol; total volume 400 ml). The flow rate was approximately equal to 25 ml/hr. Eight ml fractions were collected and assayed for cyclic AMP- and cyclic GMP-phosphodiesterase activity in the presence and absence of 0.1 units of calmodulin and 10 mM CaCl2. Appropriate fractions were pooled and dialyzed against 70 mM sodium acetate/5 mM 2-mercaptoethanol for 20 hours.
(§2) Following complete separation, the combined phosphodiesterase fractions were concentrated to 14% of the original volume using an Amicon ultrafiltration cell fitted with a UM-10 membrane, according to the method of Wells, et al (Wells, J. N., Baird, C. E., Wu, Y. J., Hardman, J. G., Biochim. Biophys. Acta, 384:430-442, 1975). Following concentration, the protein was then diluted to 65% with ethylene glycol monoethyl ether, and stored at -20° C.
(§3) Phosphodiesterase activity was measured as described previously (Weishaar, P. E., Quade, M., Boyd, D., Schenden, J., Mark, S. S., Kaplan, H. R., Drug Devel. Res., 3:517-534, 1983), in a reaction medium containing 40 mM Tris-HCl (pH 8.0), 5 mM MgCl and 4 mM 2-mercaptoethanol. Unless otherwise noted, the concentration of substrate (^3 H-cyclic AMP or ^3 H-cyclic GMP) was 1.0 μM. All agents examined were dissolved in dimethyl sulfoxide (DMSO). Final concentration of the reaction medium was either 2.5% (cardiac and platelet studies) or 1.25% (smooth muscle studies). This concentration of DMSO produced an approximately 10% inhibition of enzyme activity.

adenosine A1 receptor = target: T1, adenosine A1 receptor (Rattus norvegicus, UniProt P25099); experiment: Adenosine Receptor Binding - A1 Receptor Affinity (RBA1), [3H]-N6-cyclohexyladenosine displacement; conditions: [3H]-CHA 1.0 nM, rat brain membranes, 25° C., one hour; read-out: RBA-1, IC50 for adenosine A1 receptor affinity
T1 construct: Whole brain minus cerebellum and brainstem from male Long Evans rats; from tissue; host or cells: whole brain minus cerebellum and brainstem, male Long Evans rats (membranes)
T1 sequence (P25099 1-326): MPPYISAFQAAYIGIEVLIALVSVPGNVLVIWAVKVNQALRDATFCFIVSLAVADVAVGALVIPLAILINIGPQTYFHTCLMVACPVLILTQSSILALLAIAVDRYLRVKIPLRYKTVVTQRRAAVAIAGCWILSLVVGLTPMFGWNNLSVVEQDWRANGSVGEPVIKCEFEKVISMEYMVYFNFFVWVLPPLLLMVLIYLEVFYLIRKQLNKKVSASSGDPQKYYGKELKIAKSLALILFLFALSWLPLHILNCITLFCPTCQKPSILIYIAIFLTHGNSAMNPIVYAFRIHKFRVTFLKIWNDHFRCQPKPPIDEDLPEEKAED
Protocol: Whole brain minus cerebellum and brainstem from male Long Evans rats (150-200 g) was homogenized in 30 volumes of ice-cold 0.05M Tris-HCl buffer pH 7.7 using a Brinkman Polytron PT-10, (setting number 6 for 20 seconds) and centrifuged for ten minutes at 20,000×g (Sorvall RC-2), 4° C. The supernatant was discarded, and the pellet was resuspended and centrifuged as before. […] The homogenate was again centrifuged, and the final pellet was resuspended in ice-cold 0.05 M Tris-HCl buffer pH 7.7 to a concentration of 20 mg/ml original wet tissue weight and used immediately. […] Incubation volume was 2 ml. […] The filters were rinsed three times with 5 ml of ice cold 0.05 M Tris-HCl buffer pH 7.7. The radio-labeled ligand retained on the filter was measured by liquid scintillation spectrophotometry after shaking the filters for one hour or longer on a mechanical shaker in 10 ml of Beckman Ready-Solv HP scintillation cocktail. […] The Hill coefficient was calculated by linear regression of the line obtained by plotting the log of the bound radioligand vs the log of the [formula] The maximal number of binding sites (Bmax) was calculated from the Scatchard plot.

Type 3 Phosphodiesterase = experiment: Phosphodiesterase (PDE) Inhibition, Type 3 Phosphodiesterase; format: biochemical, bovine (coronary arteries); conditions: Type 3 PDE, at 10^-5 M, substrate 3H-cAMP 1.0 μM
Text: as §1, §2, §3

[1] = tested on: pentobarbital-anesthetized dog; experiment: In Vivo Myocardial Inotropic Activity in Anesthetized Dog (CVAD); design: species or system dog (adult mongrel); conditions: for change in vivo at 0.01 mg/kg / change in vivo at 0.03 mg/kg / change in vivo at 0.1 mg/kg / change in vivo at 0.3 mg/kg / change in vivo at 1 mg/kg / change in vivo at 0.31 mg/kg / change in vivo at 3.1 mg/kg: Canis lupus familiaris, iv; for change in vivo at 0.3 mg/kg: Test 1, 0.30 mg/kg IV; for change in vivo at 3.1 mg/kg: 3.10 mg/kg IV
Protocol: This test procedure is described in the following paragraphs.
This screen consists of determining the effects of increasing intravenous doses of compound on mycardial contractility (dP/dt max of left ventricular blood pressure), heart rate, and aortic blood pressure of the pentobarbital-anesthetized dog.
Adult mongrel dogs of either sex are anesthetized with pentobarbital, 35 mg/kg, IV, and are subsequently maintained under anesthesia with a continuous infusion of pentobarbital, 3.5 mg/kg/hour. The trachea is intubated but the animals are permitted to breathe spontaneously. A cannula is inserted into the femoral vein for administrating test agents. A Millar catheter tip pressure transducer or a fluid filled catheter is inserted into the ascending aorta via the femoral artery for measuring aortic blood pressure. A Millar catheter tip pressure transducer is passed into the left ventricle via the left carotid artery for measuring left ventricular blood pressure. Needle electrodes are placed subcutaneously for recording a lead II electrocardiogram (ECG).
Left ventricular and aortic blood pressures are recorded on a strip chart recorder. Heart rate, using a biotachometer triggered from the R wave of the ECG, and the first derivative of left ventricular blood pressure (dP/dt), obtained with a differentiator amplifier coupled to the corresponding pressure amplifier, are also recorded. A period of at least 30 minutes is utilized to obtain control data prior to administration of test compound.
Ethanol or dimethylacetamide can be used as solvents if adequate dilutions can be made. Appropriate vehicle controls are administered when needed.
Each dose of the test compound is administered in a volume of […] over a period of one minute.

[2] = read-out: Percent Change Heart Rate
[3] = read-out: Percent Change Myocardial Contractility
[4] = 0.31 mg/kg IV, read-out: Percent Change Heart Rate
[5] = 0.31 mg/kg IV, read-out: Percent Change Myocardial Contractility
[6] = 1.00 mg/kg IV, read-out: Percent Change Heart Rate
[7] = 1.00 mg/kg IV, read-out: Percent Change Myocardial Contractility

% Inhibition of hydrolysis of 3H-cAMP (Type 1 Phosphodiesterase): 15%
% Inhibition of hydrolysis of 3H-cGMP (Type 1 Phosphodiesterase): 26%
IC50 (adenosine A1 receptor): 5.43 µM
% Inhibition of hydrolysis of 3H-cAMP (Type 3 Phosphodiesterase): 17%
Compound: COc1ccc(-c2nc3c(C)nn(C)c3c(=O)[nH]2)c(OC)c1 [Example 17, 1,3-Dimethyl-5-(2,4-dimethoxyphenyl)pyrazolo[4,3-d]-pyrimidine-7-one]

IC50 (adenosine A1 receptor): 8.2 µM
Compound: CCn1nc(C)c2nc(Cc3ccccc3)[nH]c(=O)c21 [Example 22]
change in vivo at 0.01 mg/kg ([1]; Test 1, 0.01 mg/kg IV, read-out: Percent Change Heart Rate): -1%
change in vivo at 0.01 mg/kg ([1]; Test 1, 0.01 mg/kg IV, read-out: Percent Change Myocardial Contractility): 11%
change in vivo at 0.03 mg/kg ([1]; Test 1, 0.03 mg/kg IV, read-out: Percent Change Heart Rate): -1%
change in vivo at 0.03 mg/kg ([1]; Test 1, 0.03 mg/kg IV, read-out: Percent Change Myocardial Contractility): 12%
change in vivo at 0.1 mg/kg ([1]; Test 1, 0.10 mg/kg IV, read-out: Percent Change Heart Rate): -4%
change in vivo at 0.1 mg/kg ([1]; Test 1, 0.10 mg/kg IV, read-out: Percent Change Myocardial Contractility): 17%
change in vivo at 0.3 mg/kg [1, 2]: -10%
change in vivo at 0.3 mg/kg [1, 3]: 6%
change in vivo at 1 mg/kg ([1]; Test 1, 1.00 mg/kg IV, read-out: Percent Change Heart Rate): -12%
change in vivo at 1 mg/kg ([1]; Test 1, 1.00 mg/kg IV, read-out: Percent Change Myocardial Contractility): 14%
change in vivo at 0.01 mg/kg ([1]; Test 2, 0.01 mg/kg IV, read-out: Percent Change Heart Rate): -14%
change in vivo at 0.01 mg/kg ([1]; Test 2, 0.01 mg/kg IV, read-out: Percent Change Myocardial Contractility): -12%
change in vivo at 0.03 mg/kg ([1]; Test 2, 0.03 mg/kg IV, read-out: Percent Change Heart Rate): -17%
change in vivo at 0.03 mg/kg ([1]; Test 2, 0.03 mg/kg IV, read-out: Percent Change Myocardial Contractility): -13%
change in vivo at 0.1 mg/kg ([1]; Test 2, 0.10 mg/kg IV, read-out: Percent Change Heart Rate): -21%
change in vivo at 0.1 mg/kg ([1]; Test 2, 0.10 mg/kg IV, read-out: Percent Change Myocardial Contractility): -15%
change in vivo at 0.31 mg/kg ([1]; Test 2, 0.31 mg/kg IV, read-out: Percent Change Heart Rate): -22%
change in vivo at 0.31 mg/kg ([1]; Test 2, 0.31 mg/kg IV, read-out: Percent Change Myocardial Contractility): -14%
change in vivo at 1 mg/kg ([1]; Test 2, 1.00 mg/kg IV, read-out: Percent Change Heart Rate): -11%
change in vivo at 1 mg/kg ([1]; Test 2, 1.00 mg/kg IV, read-out: Percent Change Myocardial Contractility): 2%
Percent Change Blood Pressure ([1]; Test 1, 0.01 mg/kg IV): 1/0

% Inhibition of hydrolysis of 3H-cAMP (Type 1 Phosphodiesterase): 7%
% Inhibition of hydrolysis of 3H-cGMP (Type 1 Phosphodiesterase): 11%
IC50 (adenosine A1 receptor): 0.408 µM
% Inhibition of hydrolysis of 3H-cAMP (Type 3 Phosphodiesterase): 13%
Compound: Cc1nn(C)c2c(=O)[nH]c(-c3ccc(Cl)cc3)nc12 [Example 7, 1,3-Dimethyl-5-(4-chlorophenyl)pyrazolo[4,3-d]pyrimidne-7-one]

IC50 (adenosine A1 receptor): 13 µM
Compound: Cc1nn(C)c2c(O)nc(-c3ccc(S(=O)(=O)O)cc3)nc12 [Example 20, 1,3-Dimethyl-5-(4-sulfoacid phenyl)pyrazolo[4,3-d]pyrimidine-7-one]

IC50 (adenosine A1 receptor): 0.684 µM
Compound: Cc1nn(C)c2c(=O)[nH]c(-c3ccc(S(=O)(=O)NCCN(C)C)cc3)nc12 [Example 21]

IC50 (adenosine A1 receptor): 10 µM
Compound: COc1ccccc1-c1nc2c(C)nn(C)c2c(=O)[nH]1 [Example 14]
change in vivo at 0.1 mg/kg ([1]; 0.10 mg/kg IV, read-out: Percent Change Heart Rate): 2%
change in vivo at 0.1 mg/kg ([1]; 0.10 mg/kg IV, read-out: Percent Change Myocardial Contractility): 2%
change in vivo at 0.31 mg/kg [1, 4]: 4%
change in vivo at 0.31 mg/kg [1, 5]: 4%
change in vivo at 1 mg/kg [1, 6]: 14%
change in vivo at 1 mg/kg [1, 7]: 10%
change in vivo at 3.1 mg/kg [1, 2]: 27%
change in vivo at 3.1 mg/kg [1, 3]: 34%

% Inhibition of hydrolysis of 3H-cAMP (Type 1 Phosphodiesterase): 16%
% Inhibition of hydrolysis of 3H-cGMP (Type 1 Phosphodiesterase): 12%
IC50 (adenosine A1 receptor): 0.314 µM
% Inhibition of hydrolysis of 3H-cAMP (Type 3 Phosphodiesterase): 5%
Compound: Cc1nn(C)c2c(=O)[nH]c(-c3ccc(Cl)cc3N)nc12 [Example 19, 1,3-Dimethyl-5-(2-amino-4-chlorophenyl)pyrazolo[4,3-d]pyrimidine-7-one]

% Inhibition of hydrolysis of 3H-cAMP (Type 1 Phosphodiesterase): 12%
% Inhibition of hydrolysis of 3H-cGMP (Type 1 Phosphodiesterase): 1%
IC50 (adenosine A1 receptor): 0.463 µM
% Inhibition of hydrolysis of 3H-cAMP (Type 3 Phosphodiesterase): -9%
Compound: Cc1nn(C)c2c(=O)[nH]c(-c3ccc(C(F)(F)F)cc3)nc12 [Example 10]

Compound: COc1cc(OC)cc(-c2nc3c(C)nn(C)c3c(=O)[nH]2)c1 [Example 23, 1,3-Dimethyl-5-(3,5-dimethoxyphenyl)pyrazolo[4,3-d]-pyrimidine-7-one]
Percent Change Blood Pressure ([1]; 0.01 mg/kg IV): 2/2
Percent Change Blood Pressure ([1]; 0.31 mg/kg IV): 3/4
change in vivo at 0.01 mg/kg ([1]; 0.01 mg/kg IV, read-out: Percent Change Heart Rate): 1%
change in vivo at 0.01 mg/kg ([1]; 0.01 mg/kg IV, read-out: Percent Change Myocardial Contractility): 5%
change in vivo at 0.31 mg/kg [1, 4]: 3%
change in vivo at 0.31 mg/kg [1, 5]: 15%
change in vivo at 1 mg/kg [1, 6]: 6%
change in vivo at 1 mg/kg [1, 7]: 22%
